Reference: article PMC4019636, “Rational Design of Berberine-Based FtsZ Inhibitors with Broad-Spectrum Antibacterial Activity” (PLoS ONE, 2014)
In brackets after ≈: the same amount, converted by molar mass. Where two headings read alike, the source gives them in different places.

Experiments:
B. subtilis 168 = assay: Antimicrobial susceptibility assay (broth microdilution MIC); type: cell-based
Source text: (§1) The bacterial strains S. aureus ATCC 29213, S. aureus ATCC 29247, S. aureus ATCC BAA-41, E. faecium ATCC 49624, E. faecium ATCC 700221, E. faecalis ATCC 29212, S. epidermidis ATCC 12228, E. coli ATCC 25922, and K. pneumoniae ATCC BAA-1144 used in the antimicrobial susceptibility assays were purchased from American Type Culture Collection (ATCC, USA). B. subtilis strain 168 was already available in our in-house collection. E. coli JM109 WM647 was kindly provided by Dr. W. Margolin (University of Texas-Houston Medical School). FM 4–64 was purchased from Invitrogen (Eugene, Oregon). All other chemicals and reagents were purchased from Sigma-Aldrich. Stock solutions were prepared in DMSO. The final percentage of DMSO in the assays was 1% (v/v) for all experiments.
(§2) Antimicrobial susceptibility tests were conducted in 96-well microplates using the broth microdilution procedure described in the Clinical and Laboratory Standards Institute (CLSI) guidelines. Cation-adjusted Mueller Hinton broth for S. aureus strain ATCC 29213, methicillin-resistant S. aureus strain ATCC BAA-41 and ampicillin-resistant S. aureus strain ATCC 29247, or brain heart infusion broth for antibiotic-susceptible E. faecium strain ATCC 49624 and vancomycin-resistant E. faecium strain ATCC 700221, or Mueller Hinton broth for antibiotic-susceptible strains B. subtilis strain 168, E. faecalis strain ATCC 29212 and E. coli strain ATCC 25922 were used in the assays. After incubation for 18 h at 37°C, the absorbance at 600 nm (A600) was recorded using a microplate reader (Bio-Rad laboratory Ltd., UK) and the percentage of bacterial cell inhibition with respect to vehicles (1% DMSO) was calculated. The MIC was defined as the lowest compound concentration at which the growth of bacteria was inhibited by ≥90%. Three independent assays were performed for each test.

[1] = test system: S. epidermidis ATCC 12228; assay: as above; type: cell-based; conditions: Staphylococcus epidermidis
Source text: as §1, §2

S. aureus ATCC 29213 = assay: as above; type: cell-based; conditions: Staphylococcus aureus
Source text: as §1, §2

E. faecalis ATCC 29212 = assay: as above; type: cell-based; conditions: Enterococcus faecalis
Source text: as §1, §2

[2] = test system: K. pneumoniae ATCC BAA-1144; assay: as above; type: cell-based; conditions: Klebsiella pneumoniae
Source text: as §1, §2

S. aureus ATCC BAA-41 = assay: as above; type: cell-based; conditions: Staphylococcus aureus
Source text: as §1, §2

E. coli ATCC 25922 = assay: as above; type: cell-based; conditions: Escherichia coli
Source text: as §1, §2

S. aureus ATCC 29247 = assay: as above; type: cell-based; conditions: Staphylococcus aureus
Source text: as §1, §2

S. aureus FtsZ = target: T1, S. aureus FtsZ (Staphylococcus aureus, UniProt P0A031); assay: Light scattering assay of FtsZ polymerization; type: biochemical; conditions: 1 mM compound; negative control
T1 construct: made in house; host or cells: E. coli BL21(DE3)
T1 sequence (P0A031 1-390): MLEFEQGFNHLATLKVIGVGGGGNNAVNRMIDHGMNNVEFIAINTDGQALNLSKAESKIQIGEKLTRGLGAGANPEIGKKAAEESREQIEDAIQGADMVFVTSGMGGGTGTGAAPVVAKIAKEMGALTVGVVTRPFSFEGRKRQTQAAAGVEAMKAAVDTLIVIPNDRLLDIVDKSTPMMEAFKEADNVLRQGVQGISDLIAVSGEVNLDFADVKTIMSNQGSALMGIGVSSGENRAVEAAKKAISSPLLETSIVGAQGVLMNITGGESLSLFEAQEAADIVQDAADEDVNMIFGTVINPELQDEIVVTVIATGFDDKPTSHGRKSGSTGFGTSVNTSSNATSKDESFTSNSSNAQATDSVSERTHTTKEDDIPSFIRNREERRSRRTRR
Protocol: E. coli BL21(DE3) cells were transformed with the pRSET-A-S vector carrying S. aureus FtsZ with a 6-histidine tag attached at its N-terminus under the control of a T7 promoter. […] When the OD600 reached 0.8, protein expression was induced with 0.4 mM isopropyl-β-D-thiogalactopyranoside (IPTG) for 4 h. Cells were harvested by centrifugation at 9000 rpm for 20 min at 4°C. The cell pellet was resuspended in 20 mL of solubilization buffer (50 mM Tris-HCl, 150 mM NaCl, 1 mM PMSF and 1 mM EDTA, pH 7.4) and then lysed with 1 mg/mL of lysozyme. The mixture was incubated for 1 h on ice. The cells were disrupted by sonication and the crude lysate obtained was centrifuged at 13,000 rpm for 1 h at 4°C. The supernatant containing 6-histidine tagged S. aureus FtsZ was collected and loaded onto a nickel charged HiTrap chelating column pre-equilibrated with starting buffer (20 mM sodium phosphate buffer, 0.5 M NaCl, pH 7.4). The column was then washed with 8 column volumes of the starting buffer to remove the unbound proteins, and the histidine-tagged enzyme was eluted by a linear gradient of 0−0.2 M imidazole. Fractions containing S. aureus FtsZ were pooled, buffer-exchanged with 20 mM NH4HCO3 (pH 8.0) at 4°C, lyophilized, and stored at −20°C. A stock solution of S. aureus FtsZ for the subsequent bioassay was prepared from the lyophilized powder.
The light scattering assay was performed using a protocol adapted from the literature. The polymerization and depolymerization of recombinant S. aureus FtsZ was measured using 90° light scattering in a thermostatically (37°C) controlled fluorescence spectrometer (Perkin Elmer, USA). Both excitation and emission wavelengths were set to 600 nm with a slit width of 2.5 nm. S. aureus FtsZ (6 µM) in 50 mM of MOPS buffer (pH 6.5) was incubated with vehicle (1% DMSO) or different concentrations of the test compound for 10 min at 25°C. 50 mM KCl and 10 mM MgCl2 were then added to establish a baseline. After 8 min, a final concentration of 1 mM GTP was added at the last fraction and the increase in light scattering was measured for an additional 2000s. The rate and extent of polymerization were measured. Appropriate blanks were subtracted from all experimental data. Moreover, in order to rule out unselective inhibition by formation of aggregates, control experiments with 0.01% (v/v) Triton X-100 from a freshly prepared 1% (v/v) stock solution were performed for berberine and compound 2 [40], [41]. Reported results are the average of three independent experiments.

E. faecium ATCC 49624 = assay: Antimicrobial susceptibility assay (broth microdilution MIC); type: cell-based; conditions: Enterococcus faecium
Source text: as §1
(§3) Antimicrobial susceptibility tests were conducted in 96-well microplates using the broth microdilution procedure described in the Clinical and Laboratory Standards Institute (CLSI) guidelines. […] After incubation for 18 h at 37°C, the absorbance at 600 nm (A600) was recorded using a microplate reader (Bio-Rad laboratory Ltd., UK) and the percentage of bacterial cell inhibition with respect to vehicles (1% DMSO) was calculated. The MIC was defined as the lowest compound concentration at which the growth of bacteria was inhibited by ≥90%. Three independent assays were performed for each test.

E. faecium ATCC 700221 = assay: as above; type: cell-based; conditions: Enterococcus faecium
Source text: as §1, §3

[3] = Bacillus subtilis, B. subtilis 168, Mueller Hinton broth, 18 h at 37°C, growth inhibited by ≥90%, read-out: MIC
[4] = ATCC12228, S. epidermidis ATCC 12228, 18 h at 37°C, growth inhibited by ≥90%, read-out: MIC
[5] = ATCC29213, S. aureus ATCC 29213, cation-adjusted Mueller Hinton broth, 18 h at 37°C, growth inhibited by ≥90%, read-out: MIC
[6] = ATCC29212, E. faecalis ATCC 29212, Mueller Hinton broth, 18 h at 37°C, growth inhibited by ≥90%, read-out: MIC
[7] = ATCCBAA1144, K. pneumoniae ATCC BAA-1144 (Gram-negative, expressing AmpC β-lactamase), 18 h at 37°C, growth inhibited by ≥90%, read-out: MIC
[8] = ATCCBAA41, S. aureus ATCC BAA-41 (methicillin-resistant), 18 h at 37°C, growth inhibited by ≥90%, read-out: MIC
[9] = ATCC25922, E. coli ATCC 25922, Mueller Hinton broth, 18 h at 37°C, growth inhibited by ≥90%, read-out: MIC
[10] = ATCC29247, S. aureus ATCC 29247 (ampicillin-resistant), 18 h at 37°C, growth inhibited by ≥90%, read-out: MIC

MIC (B. subtilis 168; [3]) [µg/mL]	MIC [1, 4] [µg/mL]	MIC (S. aureus ATCC 29213; [5]) [µg/mL]	MIC (E. faecalis ATCC 29212; [6]) [µg/mL]	MIC [2, 7] [µg/mL]	MIC (S. aureus ATCC BAA-41; [8]) [µg/mL]	MIC (E. coli ATCC 25922; [9]) [µg/mL]	MIC (S. aureus ATCC 29247; [10]) [µg/mL]	SMILES	other results
0.1 (≈ 0.286 µM)	3 (≈ 8.59 µM)	1.5 (≈ 4.29 µM)	6 (≈ 17.2 µM)	> 96	> 96	6 (≈ 17.2 µM)	48 (≈ 137 µM)	CC1(C)S[C@@H]2[C@H](NC(=O)[C@H](N)c3ccccc3)C(=O)N2[C@H]1C(=O)O [Ampicillin, reference compound]	effect on the polymerization of S. aureus FtsZ (S. aureus FtsZ): no effect
112	112	112	> 196	> 384	196	384	112	COc1ccc2cc3[n+](cc2c1OCCCBr)CCc1cc2c(cc1-3)OCO2 [Compound 7]	MIC (E. faecium ATCC 49624; ATCC49624, E. faecium ATCC 49624, brain heart infusion broth, 18 h at 37°C, growth inhibited by ≥90%, read-out: MIC): > 196 µg/mL; MIC (E. faecium ATCC 700221; ATCC700221, E. faecium ATCC 700221 (vancomycin-resistant), brain heart infusion broth, 18 h at 37°C, growth inhibited by ≥90%, read-out: MIC): > 196 µg/mL
–	–	–	–	–	–	–	–	CN[C@H](CC(C)C)C(=O)N[C@H]1C(=O)N[C@@H](CC(N)=O)C(=O)N[C@H]2C(=O)N[C@H]3C(=O)N[C@H](C(=O)N[C@H](C(=O)O)c4cc(O)cc(O)c4-c4cc3ccc4O)[C@H](O)c3ccc(c(Cl)c3)Oc3cc2cc(c3O[C@@H]2O[C@H](CO)[C@@H](O)[C@H](O)[C@H]2O[C@H]2C[C@](C)(N)[C@H](O)[C@H](C)O2)Oc2ccc(cc2Cl)[C@H]1O [Vancomycin, vancomycin, reference compound]	MIC (B. subtilis 168; Bacillus subtilis, 168, 18 h): 1 µg/mL (≈ 0.69 µM); MIC ([1]; ATCC12228, 18 h): 1 µg/mL (≈ 0.69 µM); MIC (S. aureus ATCC 29213; ATCC29213, 18 h): 1 µg/mL (≈ 0.69 µM); MIC (E. faecalis ATCC 29212; ATCC29212, 18 h): 1 µg/mL (≈ 0.69 µM); MIC ([2]; ATCCBAA1144, 18 h): 6 µg/mL (≈ 4.14 µM); MIC (S. aureus ATCC BAA-41; ATCCBAA41, 18 h): 2 µg/mL (≈ 1.38 µM); MIC (E. coli ATCC 25922; ATCC25922, 18 h): 2 µg/mL (≈ 1.38 µM); MIC (S. aureus ATCC 29247; ATCC29247, 18 h): 1 µg/mL (≈ 0.69 µM); MIC (E. faecium ATCC 49624; ATCC49624, 18 h): 1 µg/mL (≈ 0.69 µM); MIC (E. faecium ATCC 700221; ATCC700221, 18 h): > 96 µg/mL
